Measurements reported in patent US20050148521A1, “Anti-cancer combination and use thereof” (Yissum Research Development Company of the Hebrew University, priority 2002, published 2005).
“Also recorded” adds a separate entry of the source.

Assays:
[1] = test system: EMT6/CTX mouse breast cancer cell line; experiment: EMT6/CTX subcutaneous tumor growth in mice (tumor volume); format: in vivo
Source text: Breast cancer is a highly lethal disease. To test the efficacy of rofecoxib, benzyl benzoate, cyclophosphamide, and pamidronate alone and in combination, a mouse breast cancer cell line, EMT6, that was originally isolated from a spontaneous tumor in a BALB/c mouse was used (Twentyman P R and Watson J V, Br. J. Cancer 35: 120 (1977)). This line was further selected for a drug resistant variant, EMT6/CTX, that was used in this study (Teicher B A et al. Cancer Chemother. Pharmacol. 37: 601 (1996)). An EMT6/CTX cell suspension was freshly prepared in DMEM medium+10% FCS, following trypsinization of cell grown in tissue culture. Anesthesia is performed by injecting 0.08 ml per mouse of Ketamine 30 mg/ml+0.07% Chanazine in PBS.
Rofecoxib (Vioxx, a Merck & Co. Inc. product), as an oral suspension. Diclofenac, water-soluble Vitamin K3 (menadione sodium bisulfite) and Benzyl benzoate, purchased from Sigma-Aldrich (St. Louise, […].), were formulated into solution in double-distilled water plus 2% Tween 20 (J.T. Baker, NJ). Cyclophosphamide, purchased from Bristol-Meyers Squibb (Princeton, N.J.), was formulated into solution in double-distilled water plus 2% Tween 20. Pamidronate (Pamidronic acid) was dissolved in 2M HEPES. The following doses were used for treatment in all three experiments: Rofecoxib 10 mg/kg, pamidronate 10 mg/kg, Diclofenac 30 or 60 mg/kg, menadione sodium bisulfite 20 or 50 mg/kg, cyclophosphamide (CTX) 50, 60 or 100 mg/kg and benzyl benzoate 80 or 550 mg/kg. Vehicle: 2% Tween 20 in double distilled water. The preparations were made in a concentration that will require an i.p. injection of 0.1 ml per 20 gr body weight to achieve the above doses.
All treatments were started 5 days after cell inoculation. Treatment comprised an intraperitoneal injection of 0.1 ml per 20 gr body weight of the formulation. Mice were treated twice a week for a period of 3 weeks.
Tumor dimensions were measured twice a week. Tumor volume was calculated according to conventional methods (volume=a^2×b×0.52 where a represents the tumor width and b is its length) and the data are represented as changes in tumor volume with time. Toxicity was evaluated by qualitative observation of the general appearance and behavior of the mice, by measuring their body weight during various intervals during the course of the treatments and by obtaining mortality data.

tumor-bearing mice = experiment: Own studies with tumor-bearing mice, agent given by itself; format: in vivo
cancer = details: Tetef M. et al. J. Cancer Res. Clin. Oncol. 121: 103-6 (1995); cited from earlier work

For `O=P1(N(CCCl)CCCl)NCCCO1` (stereo not shown) [CTX 50, Cyclophosphamide], the “effect on tumor growth” value ([1]; Experiment 3, FIG. 3, i.p. twice a week for 4 weeks, start 3 days after inoculation) was “moderate effect on tumor growth” and the “tumor volume, comparison of regimen” value ([1]; Experiment 7, FIG. 7, CTX 100 Sun. or CTX20 all week, D50 1, 3 or 5 days apart, A all week, 4 weeks) was “preferred over equal small doses throughout the week”.

With `CS(=O)(=O)c1ccc(C2=C(c3ccccc3)C(=O)OC2)cc1` [Rofecoxib] the anti-cancer effect (tumor-bearing mice) was “no significant anti-cancer effect”.

In the case of `O=C(OCc1ccccc1)c1ccccc1` [A, Benzyl benzoate], the “tumor volume, comparison of regimen” value ([1]; Experiment 4, FIG. 4, (CTX 50+BC)x2 per week+1/6A x6 per week vs CTX 50+ABC twice a week, 4 weeks) is reported as “superiority of spreading the dose of A throughout the week”.

In the case of `CC1=CC(=O)c2ccccc2C1=O` [VK, 2-methyl-1,4-naphthalenedione], the “activity as an anti-cancer agent” value (cancer) is given as “failed to show any activity” and the “tumor volume, effect of addition of Vitamin K3” value ([1]; Experiment 8, FIG. 8, VK 20 mg/kg 6 times a week or 50 mg/kg twice a week added to CTX60+D30+A, 4 weeks) is given as “improve the efficacy of the treatment; also recorded: lower doses throughout the week (every day) is preferable”.

With `O=C(O)Cc1ccccc1Nc1c(Cl)cccc1Cl` [D, Diclofenac] the “tumor volume, comparison of NSAID” value ([1]; Experiment 6, FIG. 6, NSAID Wed. with or without B, CTX 100 Sun., A all week, 4 weeks) was “superiority of D (25 and 50 mg/kg) over C (5 and 10 mg/kg, respectively)”.
